Earlier results on one substance are cited in patent US20090062406A1, “Aqueous concentrates of isethionate, taurate and betaine” (Clariant International Ltd., priority 2007, published 2009).

The conditions of the data set: 20° C.

For sodium methyl cocoyl taurate, the Solubility in water is 10000 µg/mL.
